In patent US8883486B2, “Arrestin biosensor” (Universite de Montreal, priority 2004, dated 2014):
Entries after “also recorded” stand apart in the source; their conditions may differ.

Tests used:
[1] = molecular target: T1, V2R (Homo sapiens, UniProt P30518); test: Intramolecular BRET1 of double-brilliance β-arr (Luc-β-arr-YFP): conformational change of β-arr; type: cell-based; set-up: expressed in transfected cells; host or cells: HEK293; conditions: HEK293 cells co-expressing V2R and Luc-β-arr-YFP
Target sequence in this assay (P30518 whole entry): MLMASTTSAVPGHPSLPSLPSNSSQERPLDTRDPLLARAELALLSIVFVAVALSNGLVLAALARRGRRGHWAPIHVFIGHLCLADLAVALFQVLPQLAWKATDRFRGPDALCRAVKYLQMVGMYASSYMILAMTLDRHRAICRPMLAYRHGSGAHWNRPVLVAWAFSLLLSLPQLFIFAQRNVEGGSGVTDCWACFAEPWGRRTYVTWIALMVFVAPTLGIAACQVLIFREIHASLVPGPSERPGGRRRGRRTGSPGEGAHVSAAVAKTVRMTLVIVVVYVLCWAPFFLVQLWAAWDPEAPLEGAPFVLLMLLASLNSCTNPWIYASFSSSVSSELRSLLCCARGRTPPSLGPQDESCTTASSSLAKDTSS
Procedure: HEK293 cells were transfected with the indicated plasmids and BRET was measured at 25° C. in the presence of coelenterazine h. […] Data are the mean±s.e.m. of at least three independent experiments. *P<0.01 between treated and control condition.
The basal BRET signals were subtracted from each condition to express the data as ligand-induced BRET increase.
BRET assays. […] Briefly, cells were distributed in 96-well microplates (Corning, Corning, USA) and incubated with or without agonist for the indicated time at 25° C. The appropriate Luc substrate was added to a final concentration of 5 mM, either simultaneously with the agonist (time course) or following agonist treatment (single measurement or dose dependency), and readings were collected using a Multilabel Reader Mithras LB 940 (Berthold Technologies, Bad Wildbad, Germany). […] The BRET signal was determined by calculating the ratio of the light emitted by the fluorescent acceptor and the light emitted by Luc. The values were corrected by subtracting the background BRET signals detected when Luc-β-arr was expressed alone.

[2] = molecular target: T1, V2R; conditions: ligand is inverse agonist in the AC pathway; leads to activation of the ERK cascade; cited from earlier work
Target sequence in this assay (P30518 whole entry): as above
Target sequence in this assay (P32121 whole entry partner): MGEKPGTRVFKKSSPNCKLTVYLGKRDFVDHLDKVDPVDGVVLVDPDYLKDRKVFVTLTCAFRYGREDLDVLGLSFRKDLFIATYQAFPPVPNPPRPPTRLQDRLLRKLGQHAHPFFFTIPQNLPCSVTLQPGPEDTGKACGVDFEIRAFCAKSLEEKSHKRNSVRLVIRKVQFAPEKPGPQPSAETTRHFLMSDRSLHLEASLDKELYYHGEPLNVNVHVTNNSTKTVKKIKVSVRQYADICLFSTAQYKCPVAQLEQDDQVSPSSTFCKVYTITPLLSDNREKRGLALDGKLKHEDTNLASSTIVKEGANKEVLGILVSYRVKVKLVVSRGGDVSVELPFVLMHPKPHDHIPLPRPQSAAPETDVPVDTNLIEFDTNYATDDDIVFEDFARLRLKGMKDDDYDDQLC

Compound: CCOc1ccc2c(c1)C1(CCC(OCCN3CCOCC3)CC1)C(=O)N2S(=O)(=O)c1ccc(C(=O)NC(C)(C)C)cc1OC (centres unmarked) [SR121463]
- ligand-induced intramolecular BRET increase [1]: significantly lower than that induced by AVP treatment; also recorded: can promote an increase in the BRET signal
- recruitment of β-arr [2]: induced the recruitment of β-arr
